This is an account of results in US20190364889A1, “Application of Enhancer in Shortening the Half Life of and/or Time for Complete Degradation of Pesticide Residue” (priority 2016, published 2019).

For the data set the following is noted: in vivo.

As to `CCOCN(C(=O)CCl)c1c(C)cccc1CC` [acetochlor], the complete degradation time was roughly 21 days.
